# Test results: patent US7223779B2, “Azasugar derivative and drug containing the same as the active ingredient” (Carna Biosciences Inc., priority 2002, dated 2007)
# Legend:
# [1] = tested on: re-epithelialization of keratinocytes, mouse skin wound model; assay: Mouse skin wound healing model, re-epithelialization of keratinocytes; assay type: in vivo; conditions: male BALB/c mice; 6 mm full-thickness wounds; applied once a day; assessed eight days after operation; FIG. 2
# Protocol: Wound healing model was prepared in accordance with the method described by Tsuboi, et al. (J. Dermatol., 19, 673–675 (1992)). After backs of male BALB/c mice were shaved, two full-thickness round wounds (6 mm diameter) were prepared on the back of each mouse using a punch biopsy instrument. In medicine-treated group, immediately after the operation, a test compound suspended in 0.01M phosphate-buffered saline containing 1.5% sodium carboxymethyl cellulose (vehicle) was applied to each wound in a volume of 50 μL/wound. From the following day, the compound was repeatedly applied to each wound once a day for 7 days. In the control group, vehicle solution only was applied in the same manner. Eight days after the operation, mice were sacrificed and skin tissues containing wound area were removed. The tissues were fixed with a 10% neutral buffer formalin solution for one day and embedded in paraffin according to the conventional method. The cross-sections were made perpendicularly to the anterior-posterior axis. Keratinocytes in the specimen were stained by immuno histochemical staining method with an anti-keratin antibody after removing paraffin. Measurements of wound size (mm) and re-epithelialization of keratinocytes (mm) were performed by using an image-analyzing software. Re-epithelialization rate(%) of keratinocytes was calculated as follows with regard to each animal. […]
# [2] = tested on: epidermal hyperplasia in mice induced by the application of TPA; assay: TPA-induced epidermal hyperplasia in mouse dorsal skin; assay type: in vivo; conditions: male BALB/c mice; applied to skin 5 min, 24 h and 48 h after TPA; doses 1, 10, 100 μg; skin excised at 72 h; FIG. 1
# Protocol: After backs of male BALB/c mice were shaved, 10 μL of a TPA-acetone solution (0.1 mM) was applied to the dorsal skin surface in an area of about 1 cm^2. In the medicine-treated group, a volume of 20 μL of a solution prepared by dissolving the test compound in acetone was applied to the same area 5 minutes, 24 hours and 48 hours after TPA application. In the non-treated group, only TPA was applied. In the control group, acetone was applied instead of the TPA-acetone solution.
# The mice were sacrificed and the skin tissues were excised 72 hours after TPA application. Then the tissues were fixed with formalin, the vertical sections including the center of the TPA- or acetone-treated area were prepared and embedded in paraffin according to the conventional method. And they were stained by hematoxylin-eosin after removing paraffin. The epidermal thickness was measured using a microscope.
# In FIG. 1, the numeral in the ordinate represents the epidermal thickness (μm). A bar graph of TPA (−) represents the epidermal thickness of the control group and a bar graph of TPA represents the epidermal thickness of the non-treated group. The respective bar graphs of 1, 10 and 100 denote the epidermal thickness of the group wherein the test compound is administered at a dose of 1, 10 and 100 (μg/wound) of each test compound. […]
smiles,measurement,setting,value
"O=C(NO)[C@H]1[C@@H](O)[C@H](O)[C@@H](O)CN1S(=O)(=O)c1ccc(Oc2ccccc2)cc1 [Compound c, (2R,3R,4R,5S)-3,4,5-trihydroxy-1-(4′-phenoxybenzenesulfonyl)-piperidine-2-carboxylic Acid Hydroxamide]",re-epithelialization rate (%) of keratinocytes inhibitory activity,[1],inhibitory activity
same,hyperplasia inhibitory activity (epidermal thickness),[2],hyperplasia inhibitory activity
